Experimental data: patent US20160251342A1, “ALDEHYDE DERIVATIVE OF SUBSTITUTED OXAZOLIDINONES” (WANBURY LTD., priority 2012, published 2016)

Columns and labels:
CYP isoforms = assay: CYP inhibition studies, overall interpretation; assay type: in vitro ADME, humans; conditions: compound formula-B with other drug when administered
Protocol: The ability of substances to inhibit CYP1A2, CYP2C9, CYP2D6, CYP2C19, CYP2J2 and CYP3A4 in humans was investigated with pooled human liver microsomes as enzyme source in the presence of standard substrates (see below) which form CYP-isoform-specific metabolites.
Standard incubation mixtures comprise NADPH and substrates in 100 mM phosphate buffer (pH 7.4) in a total volume of 200 μl. Test compound are dissolved in acetonitrile. Incubated with pooled human liver microsomes at 37° C. for a defined time. The reactions are stopped by adding 100 μl of acetonitrile in which a suitable internal standard is always present. Precipitated proteins are removed by centrifugation, and the supernatants analyzed by LC-MS/MS. The data represents the extrapolated IC50 (μM) concentration derived from 3 μM.
This is an essential parameter to gauge drug-drug interactions.

[1] = Stability in simulating intestinal fluid (SIF); assay type: physicochemical; conditions: SIF pH 7.4, up to 120 min
Protocol: On completion of incubation period, the solution is centrifuged and supernatant is taken. To the supernatant, ice cold acetonitrile containing IS is added, vortexed and injected into LCMS/MS.
API 4000, ESI Agilent 1100 column: Gemini Nx 100 mm×4.6 mm 5.μ; column temperature: 30° C.; eluent A: 0.1% formic acid in water, eluent B: acetonitrile; gradient: 0-2.5 min 95% A, 5% B; 2.5-2.6 min 5% A, 95% B; 2.6-4.2 min 95% A, 5% B; flow rate: 0.8 ml/min; ESI. Q1:464.098, Q3:144.255
SIF/SGF: 2.38 g of SIF original powder (biorelavant media) is dissolved in 1 L of milliQ water. The pH of the solution is adjusted for SIF (7.4) and SGF (2.2) with 0.1N HCl. The ratios of the peak areas (F) at the respective time points in relation to the peak areas at the starting time are calculated. […] The peak area (F) is directly correlated to the amount of test compound which is quantified by the LC MS method.
In simulating intestinal and gastric fluid, the area of the formula B compared with zero minute area to 120 min.

Interpretation: drug-drug interaction (CYP isoforms): Low drug-drug interaction | Stability at simulating intestinal conditions [1]: stable
SMILES: O=CN(C[C@H]1CN(c2ccc(N3CCOCC3=O)cc2)C(=O)O1)C(=O)c1ccc(Cl)s1 [compound formula (B), 5-chloro-N-formyl-N-({(5S)-2-oxo-3-[4-(3-oxomorpholin-4-yl)phenyl]-1,3-oxazolidin-5-yl}methyl)thiophene-2-carboxamide]
